Assay results: PubChem BioAssay (NCI)
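Results reflect a 48-hour exposure of cells in 96-well plates to compound at five concentrations. GI50 = concentration required for 50% inhibition of growth. TGI: total growth inhibition.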

Columns and labels:
Experiment in all cases: NCI tumour cell line growth inhibition, 48 h
786-0 renal = system: 786-0 renal
CAKI-1 renal = system: CAKI-1 renal
HL-60(TB) leukemia = system: HL-60(TB) leukemia
NCI-H226 lung = system: NCI-H226 lung
OVCAR-3 ovarian = system: OVCAR-3 ovarian
OVCAR-4 ovarian = system: OVCAR-4 ovarian
SNB-19 CNS = system: SNB-19 CNS
UO-31 renal = system: UO-31 renal
DU-145 prostate = system: DU-145 prostate
PC-3 prostate = system: PC-3 prostate

For `COc1cc2c3c(c1OC)-c1ccccc1C(C(OC(C)=O)c1ccccc1)C3N(C)CC2` (configuration not stated), which TGI (786-0 renal) is on record?
The TGI was over 100 µM.

And the TGI (CAKI-1 renal)?
The TGI was over 100 µM.

And the TGI (HL-60(TB) leukemia)?
Its TGI is over 100 µM.

And the TGI (NCI-H226 lung)?
The TGI was over 100 µM.

And the TGI (OVCAR-3 ovarian)?
Its TGI is over 100 µM.

And the TGI (OVCAR-4 ovarian)?
Its TGI is over 100 µM.

And the TGI (SNB-19 CNS)?
Its TGI is over 100 µM.

And the TGI (UO-31 renal)?
The TGI was over 100 µM.

`O=C(O)c1cc(Cl)cc(NC(=O)C(Cl)Cl)c1Cl` was tested. Which TGI (786-0 renal) did it give?
Its TGI is over 100 µM.

What about the TGI (CAKI-1 renal) of the same compound?
The TGI was over 100 µM.

And the TGI (HL-60(TB) leukemia)?
Its TGI is over 100 µM.

And the TGI (NCI-H226 lung)?
The TGI was over 100 µM.

And the TGI (OVCAR-3 ovarian)?
Its TGI is over 100 µM.

And the TGI (OVCAR-4 ovarian)?
Its TGI is over 100 µM.

What about the TGI (SNB-19 CNS) of the same compound?
The TGI was over 100 µM.

What about the TGI (UO-31 renal) of the same compound?
The TGI was over 100 µM.

Which TGI (786-0 renal) does the source give for `COC(=O)C(CC=O)C(=O)C(=O)Nc1cccc(C(F)(F)F)c1` (configuration not stated) here?
Its TGI is over 100 µM.

What about the TGI (CAKI-1 renal) of the same compound?
Its TGI is over 100 µM.

And the TGI (HL-60(TB) leukemia)?
Its TGI is over 100 µM.

What about the TGI (NCI-H226 lung) of the same compound?
The TGI was over 100 µM.

What about the TGI (OVCAR-3 ovarian) of the same compound?
Its TGI is over 100 µM.

And the TGI (OVCAR-4 ovarian)?
Its TGI is over 100 µM.

What about the TGI (SNB-19 CNS) of the same compound?
Its TGI is over 100 µM.

What about the TGI (UO-31 renal) of the same compound?
The TGI was over 100 µM.

What does the source list for `Cc1cc(N(CCC#N)S(=O)(=O)c2ccccc2)ccc1C=O`?
TGI (786-0 renal): > 100 µM; TGI (CAKI-1 renal): > 100 µM; TGI (HL-60(TB) leukemia): > 100 µM; TGI (NCI-H226 lung): > 100 µM; TGI (OVCAR-3 ovarian): > 100 µM; TGI (OVCAR-4 ovarian): > 100 µM; TGI (SNB-19 CNS): > 100 µM; TGI (UO-31 renal): > 100 µM

`CC1CCC(O)C(C(O)CC2CC(=O)N(C)C(=O)C2)C1` (configuration not stated) was tested. Which TGI (786-0 renal) did it give?
The TGI was over 100 µM.

What about the TGI (CAKI-1 renal) of the same compound?
Its TGI is over 100 µM.

And the TGI (HL-60(TB) leukemia)?
The TGI was over 100 µM.

What about the TGI (NCI-H226 lung) of the same compound?
Its TGI is over 100 µM.

And the TGI (OVCAR-3 ovarian)?
Its TGI is over 100 µM.

What about the TGI (OVCAR-4 ovarian) of the same compound?
The TGI was over 100 µM.

And the TGI (SNB-19 CNS)?
The TGI was over 100 µM.

And the TGI (UO-31 renal)?
Its TGI is over 100 µM.

What does the source list for `O=c1c2ccccc2nc(-c2ccccc2)n1NCC1(O)OCC(O)C(O)C1O` (configuration not stated)?
TGI (786-0 renal): > 100 µM; TGI (CAKI-1 renal): > 100 µM; TGI (HL-60(TB) leukemia): > 100 µM; TGI (NCI-H226 lung): > 100 µM; TGI (OVCAR-3 ovarian): > 100 µM; TGI (OVCAR-4 ovarian): > 100 µM; TGI (SNB-19 CNS): > 100 µM; TGI (UO-31 renal): > 100 µM

For `O=C(Oc1c(I)ccccc1=O)c1ccc([N+](=O)[O-])cc1`, which TGI (786-0 renal) is on record?
Its TGI is over 100 µM.

What about the TGI (CAKI-1 renal) of the same compound?
Its TGI is 55.1 µM.

And the TGI (DU-145 prostate)?
Its TGI is 26.8 µM.

What about the TGI (HL-60(TB) leukemia) of the same compound?
Its TGI is 46.5 µM.

And the TGI (OVCAR-3 ovarian)?
The TGI was 40.1 µM.

What about the TGI (PC-3 prostate) of the same compound?
Its TGI is 75.1 µM.

And the TGI (SNB-19 CNS)?
Its TGI is 46.5 µM.

What about the TGI (UO-31 renal) of the same compound?
The TGI was 68.9 µM.

How did the TGI (786-0 renal) turn out when `N#Cc1c2c(c(N=[N+]=[N-])n3c1nc1ccccc13)CCCC2` was run?
The TGI was 3.53 µM.

And the TGI (CAKI-1 renal)?
Its TGI is 6.39 µM.

And the TGI (HL-60(TB) leukemia)?
The TGI was 8.6 µM.

What about the TGI (NCI-H226 lung) of the same compound?
The TGI was 3.35 µM.

What about the TGI (OVCAR-3 ovarian) of the same compound?
Its TGI is 10.3 µM.

What about the TGI (OVCAR-4 ovarian) of the same compound?
Its TGI is 5.33 µM.

What about the TGI (SNB-19 CNS) of the same compound?
Its TGI is 7.84 µM.

What about the TGI (UO-31 renal) of the same compound?
Its TGI is 4.55 µM.

`CC(C)OP(=O)(OC(C)C)C(N(C)C)P(=O)(OC(C)C)OC(C)C.[Cl][Sn]([Cl])([Cl])[c]1ccccc1` was tested. Which GI50 (786-0 renal) did it give?
The GI50 was 2.84 µM.

And the TGI (786-0 renal)?
The TGI was 12.3 µM.

What about the GI50 (CAKI-1 renal) of the same compound?
Its GI50 is 3.7 µM.

And the TGI (CAKI-1 renal)?
The TGI was over 100 µM.

And the GI50 (HL-60(TB) leukemia)?
Its GI50 is 1.63 µM.

What about the TGI (HL-60(TB) leukemia) of the same compound?
The TGI was 4.84 µM.

What about the GI50 (NCI-H226 lung) of the same compound?
Its GI50 is 2.05 µM.

And the TGI (NCI-H226 lung)?
Its TGI is 9.69 µM.

And the GI50 (OVCAR-3 ovarian)?
The GI50 was 5.64 µM.

And the TGI (OVCAR-3 ovarian)?
The TGI was 53 µM.

And the GI50 (SNB-19 CNS)?
Its GI50 is 17.8 µM.

And the TGI (SNB-19 CNS)?
Its TGI is over 100 µM.

What about the GI50 (UO-31 renal) of the same compound?
Its GI50 is 4.12 µM.

What about the TGI (UO-31 renal) of the same compound?
The TGI was over 100 µM.

`O=C1c2cccnc2C(=O)c2c1c(C(=O)OCCCN1CCOCC1)c1ccccn21` was tested. Which GI50 (786-0 renal) did it give?
Its GI50 is 0.0124 µM.

And the TGI (786-0 renal)?
Its TGI is 0.0403 µM.

What about the GI50 (CAKI-1 renal) of the same compound?
The GI50 was under 0.01 µM.

What about the TGI (CAKI-1 renal) of the same compound?
Its TGI is 0.0509 µM.

And the GI50 (DU-145 prostate)?
The GI50 was under 0.01 µM.

What about the TGI (DU-145 prostate) of the same compound?
The TGI was 1.29 µM.

And the GI50 (HL-60(TB) leukemia)?
Its GI50 is 0.0361 µM.

What about the TGI (HL-60(TB) leukemia) of the same compound?
The TGI was 2.76 µM.

What about the GI50 (OVCAR-3 ovarian) of the same compound?
The GI50 was 0.0201 µM.

And the TGI (OVCAR-3 ovarian)?
Its TGI is 0.528 µM.

And the GI50 (OVCAR-4 ovarian)?
The GI50 was 0.94 µM.

And the TGI (OVCAR-4 ovarian)?
The TGI was 3.99 µM.

And the GI50 (PC-3 prostate)?
Its GI50 is 0.0147 µM.

And the TGI (PC-3 prostate)?
Its TGI is 4.94 µM.

What about the GI50 (SNB-19 CNS) of the same compound?
The GI50 was under 0.01 µM.

What about the TGI (SNB-19 CNS) of the same compound?
Its TGI is 4.13 µM.

Which results are given for `CC1=CC2=C(C)C3(CC3)[C@@](C)(O)C(=O)C2=C1`?
TGI (786-0 renal): 0.517 µM; TGI (CAKI-1 renal): 0.744 µM; TGI (HL-60(TB) leukemia): 0.587 µM; TGI (NCI-H226 lung): 0.492 µM; TGI (OVCAR-3 ovarian): 0.352 µM; TGI (OVCAR-4 ovarian): 0.356 µM; TGI (SNB-19 CNS): 0.545 µM; TGI (UO-31 renal): 0.337 µM
